Results as given in BigSolDB 2.1.

O=[N+]([O-])c1cc[nH]n1
solubility (mole fraction)
Conditions | 283.15 K | 288.15 K | 293.15 K | 298.15 K | 303.15 K | 308.15 K | 313.15 K | 318.15 K | 323.15 K
in THF | 0.00254 | 0.00305 | 0.00386 | 0.00456 | 0.00553 | 0.00654 | 0.00761 | 0.00903 | 0.0106
in acetone | 0.0129 | 0.0152 | 0.0177 | 0.0202 | 0.0228 | 0.0261 | 0.0301 | 0.0339 | 0.0376
in acetonitrile | 0.0148 | 0.017 | 0.0195 | 0.0223 | 0.0254 | 0.0289 | 0.0327 | 0.037 | 0.0418
in benzene | 0.00052 | 0.00066 | 0.00086 | 0.00109 | 0.00139 | 0.00171 | 0.00215 | 0.00265 | 0.00323
in ethanol | 0.0254 | 0.0292 | 0.0328 | 0.0364 | 0.041 | 0.0449 | 0.0548 | 0.0599 | 0.0646
in ethyl acetate | 0.00586 | 0.00728 | 0.00905 | 0.0107 | 0.0133 | 0.0163 | 0.0196 | 0.0236 | 0.0282
in isopropyl acetate | 0.00234 | 0.00292 | 0.00364 | 0.00456 | 0.00566 | 0.00695 | 0.00849 | 0.0102 | 0.0125
in methanol | 0.00822 | 0.0131 | 0.017 | 0.0208 | 0.0256 | 0.0338 | 0.0455 | 0.0605 | 0.0854
in methyl acetate | 0.0083 | 0.0102 | 0.0125 | 0.0149 | 0.0178 | 0.0209 | 0.0244 | 0.0282 | 0.032
in n-butyl acetate | 0.00323 | 0.00423 | 0.00542 | 0.00687 | 0.00865 | 0.0107 | 0.0132 | 0.0159 | 0.0191
in n-propanol | 0.0224 | 0.0255 | 0.0295 | 0.0336 | 0.0384 | 0.0442 | 0.0481 | 0.0551 | 0.0627
in n-propyl acetate | 0.00676 | 0.00793 | 0.0092 | 0.0106 | 0.0123 | 0.0142 | 0.0165 | 0.0193 | 0.0225
in toluene | 0.00148 | 0.00187 | 0.00232 | 0.00286 | 0.00354 | 0.00437 | 0.00514 | 0.00623 | 0.00729
in water | 0.00032 | 0.0004 | 0.00051 | 0.00065 | 0.00083 | 0.00105 | 0.00133 | 0.0017 | 0.00216
